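All cell lines were grown in 96-well plates and treated with compound for 48 hours. TGI denotes the concentration required for complete inhibition of growth.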
What was measured:
Experiment in all cases: NCI tumour cell line growth inhibition, 48 h
786-0 renal = system: 786-0 renal
A498 renal = system: A498 renal
A549 NSCLC = system: A549 NSCLC
ACHN renal = system: ACHN renal
BT-549 breast = system: BT-549 breast
CAKI-1 renal = system: CAKI-1 renal
CCRF-CEM leukemia = system: CCRF-CEM leukemia
COLO 205 colon = system: COLO 205 colon
DU-145 prostate = system: DU-145 prostate
EKVX NSCLC = system: EKVX NSCLC
HCC-2998 colon = system: HCC-2998 colon
HCT-116 colon = system: HCT-116 colon
HCT-15 colon = system: HCT-15 colon
HL-60(TB) leukemia = system: HL-60(TB) leukemia
HOP-62 NSCLC = system: HOP-62 NSCLC
HOP-92 NSCLC = system: HOP-92 NSCLC
HS 578T breast = system: HS 578T breast
HT29 colon = system: HT29 colon
IGROV1 ovarian = system: IGROV1 ovarian
K-562 leukemia = system: K-562 leukemia
KM12 colon = system: KM12 colon
LOX IMVI melanoma = system: LOX IMVI melanoma
M14 melanoma = system: M14 melanoma
MALME-3M melanoma = system: MALME-3M melanoma
MCF7 breast = system: MCF7 breast
MDA-MB-231 breast = system: MDA-MB-231 breast
MDA-MB-435 = system: MDA-MB-435
MDA-N = system: MDA-N
MOLT-4 leukemia = system: MOLT-4 leukemia
NCI-H226 lung = system: NCI-H226 lung
NCI-H23 lung = system: NCI-H23 lung
NCI-H460 lung = system: NCI-H460 lung
NCI-H522 lung = system: NCI-H522 lung
NCI/ADR-RES ovarian = system: NCI/ADR-RES ovarian
OVCAR-3 ovarian = system: OVCAR-3 ovarian
OVCAR-4 ovarian = system: OVCAR-4 ovarian
OVCAR-5 ovarian = system: OVCAR-5 ovarian
OVCAR-8 ovarian = system: OVCAR-8 ovarian
PC-3 prostate = system: PC-3 prostate
RPMI-8226 leukemia = system: RPMI-8226 leukemia
RXF 393 renal = system: RXF 393 renal
SF-268 CNS = system: SF-268 CNS
SF-295 CNS = system: SF-295 CNS
SF-539 CNS = system: SF-539 CNS
SK-MEL-2 melanoma = system: SK-MEL-2 melanoma
SK-MEL-28 melanoma = system: SK-MEL-28 melanoma
SK-MEL-5 melanoma = system: SK-MEL-5 melanoma
SK-OV-3 ovarian = system: SK-OV-3 ovarian
SN12C renal = system: SN12C renal
SNB-19 CNS = system: SNB-19 CNS
SNB-75 CNS = system: SNB-75 CNS
SW-620 colon = system: SW-620 colon
T-47D breast = system: T-47D breast
TK-10 renal = system: TK-10 renal
U251 CNS = system: U251 CNS
UACC-257 melanoma = system: UACC-257 melanoma
UACC-62 melanoma = system: UACC-62 melanoma
UO-31 renal = system: UO-31 renal
SR leukemia = system: SR leukemia

## NCC1CCN(c2nc3ccccc3c3c2CCCC3)CC1
786-0 renal
  TGI: 12.3 µM
A498 renal
  TGI: 25.7 µM
A549 NSCLC
  TGI: 24.9 µM
ACHN renal
  TGI: 25.3 µM
BT-549 breast
  TGI: 28 µM
CAKI-1 renal
  TGI: 21.4 µM
CCRF-CEM leukemia
  TGI: 14.2 µM
COLO 205 colon
  TGI: 3.13 µM
DU-145 prostate
  TGI: 25.9 µM
EKVX NSCLC
  TGI: 27.7 µM
HCC-2998 colon
  TGI: 3.46 µM
HCT-116 colon
  TGI: 9.91 µM
HCT-15 colon
  TGI: 14.9 µM
HL-60(TB) leukemia
  TGI: 8.13 µM
HOP-62 NSCLC
  TGI: 32.1 µM
HOP-92 NSCLC
  TGI: 24.1 µM
HS 578T breast
  TGI: > 100 µM
HT29 colon
  TGI: 6.22 µM
IGROV1 ovarian
  TGI: 24.5 µM
K-562 leukemia
  TGI: 8.07 µM
KM12 colon
  TGI: 15.9 µM
LOX IMVI melanoma
  TGI: 16 µM
M14 melanoma
  TGI: 3.71 µM
MALME-3M melanoma
  TGI: 26 µM
MCF7 breast
  TGI: 15 µM
MDA-MB-231 breast
  TGI: 17.2 µM
MDA-MB-435
  TGI: 7.13 µM
MDA-N
  TGI: 7.92 µM
MOLT-4 leukemia
  TGI: 11.7 µM
NCI-H226 lung
  TGI: 34.1 µM
NCI-H23 lung
  TGI: 30.1 µM
NCI-H460 lung
  TGI: 17.6 µM
NCI-H522 lung
  TGI: 19.8 µM
NCI/ADR-RES ovarian
  TGI: 32.3 µM
OVCAR-3 ovarian
  TGI: 24.9 µM
OVCAR-4 ovarian
  TGI: 23.2 µM
OVCAR-5 ovarian
  TGI: 24.7 µM
OVCAR-8 ovarian
  TGI: 42.9 µM
PC-3 prostate
  TGI: 22.5 µM
RPMI-8226 leukemia
  TGI: 6.3 µM
RXF 393 renal
  TGI: 11.7 µM
SF-268 CNS
  TGI: 22.7 µM
SF-295 CNS
  TGI: 26.7 µM
SF-539 CNS
  TGI: 11.3 µM
SK-MEL-2 melanoma
  TGI: 11.3 µM
SK-MEL-28 melanoma
  TGI: 12 µM
SK-MEL-5 melanoma
  TGI: 7.62 µM
SK-OV-3 ovarian
  TGI: 29.6 µM
SN12C renal
  TGI: 22.4 µM
SNB-19 CNS
  TGI: 24.3 µM
SNB-75 CNS
  TGI: 22.2 µM
SW-620 colon
  TGI: 9.34 µM
T-47D breast
  TGI: 8.81 µM
TK-10 renal
  TGI: 25.9 µM
U251 CNS
  TGI: 16.2 µM
UACC-257 melanoma
  TGI: 6.84 µM
UACC-62 melanoma
  TGI: 4.96 µM
UO-31 renal
  TGI: 11.9 µM

## Oc1ccc(/C=C/c2cc(O)cc(O)c2)cc1
A498 renal
  TGI: > 100 µM
A549 NSCLC
  TGI: > 100 µM
ACHN renal
  TGI: > 100 µM
BT-549 breast
  TGI: > 100 µM
CAKI-1 renal
  TGI: > 100 µM
DU-145 prostate
  TGI: 85.3 µM
EKVX NSCLC
  TGI: > 100 µM
HCC-2998 colon
  TGI: > 100 µM
HCT-15 colon
  TGI: > 100 µM
HL-60(TB) leukemia
  TGI: > 100 µM
HOP-62 NSCLC
  TGI: > 100 µM
HOP-92 NSCLC
  TGI: > 100 µM
HT29 colon
  TGI: > 100 µM
KM12 colon
  TGI: > 100 µM
M14 melanoma
  TGI: > 100 µM
MCF7 breast
  TGI: > 100 µM
MDA-MB-231 breast
  TGI: > 100 µM
MDA-MB-435
  TGI: > 100 µM
MDA-N
  TGI: > 100 µM
MOLT-4 leukemia
  TGI: > 100 µM
NCI-H226 lung
  TGI: > 100 µM
NCI-H23 lung
  TGI: > 100 µM
NCI-H460 lung
  TGI: > 100 µM
NCI/ADR-RES ovarian
  TGI: > 100 µM
OVCAR-3 ovarian
  TGI: > 100 µM
OVCAR-4 ovarian
  TGI: > 100 µM
OVCAR-5 ovarian
  TGI: > 100 µM
OVCAR-8 ovarian
  TGI: > 100 µM
PC-3 prostate
  TGI: > 100 µM
RPMI-8226 leukemia
  TGI: > 100 µM
RXF 393 renal
  TGI: > 100 µM
SF-268 CNS
  TGI: > 100 µM
SF-295 CNS
  TGI: > 100 µM
SF-539 CNS
  TGI: > 100 µM
SK-MEL-2 melanoma
  TGI: > 100 µM
SK-MEL-28 melanoma
  TGI: > 100 µM
SK-OV-3 ovarian
  TGI: > 100 µM
SN12C renal
  TGI: > 100 µM
SNB-19 CNS
  TGI: > 100 µM
SNB-75 CNS
  TGI: > 100 µM
SR leukemia
  TGI: > 100 µM
SW-620 colon
  TGI: > 100 µM
T-47D breast
  TGI: > 100 µM
TK-10 renal
  TGI: > 100 µM
U251 CNS
  TGI: > 100 µM
UACC-257 melanoma
  TGI: > 100 µM
UACC-62 melanoma
  TGI: > 100 µM
UO-31 renal
  TGI: > 100 µM

Source: PubChem BioAssay (NCI)
